Test results as given in ChEMBL document CHEMBL3627608, “Crystal structures of human RIP2 kinase catalytic domain complexed with ATP-competitive inhibitors: Foundations for understanding inhibitor selectivity” (Bioorg Med Chem, 2015).

Tests used:
[1] = molecular target: T1, Serine/threonine-protein kinase PLK4 (Homo sapiens) (UniProt O00444); experiment: Inhibition of PLK4 (unknown origin) at 10 uM after 120 mins P33 radiolabeled kinase activity assay
T1 sequence (whole entry): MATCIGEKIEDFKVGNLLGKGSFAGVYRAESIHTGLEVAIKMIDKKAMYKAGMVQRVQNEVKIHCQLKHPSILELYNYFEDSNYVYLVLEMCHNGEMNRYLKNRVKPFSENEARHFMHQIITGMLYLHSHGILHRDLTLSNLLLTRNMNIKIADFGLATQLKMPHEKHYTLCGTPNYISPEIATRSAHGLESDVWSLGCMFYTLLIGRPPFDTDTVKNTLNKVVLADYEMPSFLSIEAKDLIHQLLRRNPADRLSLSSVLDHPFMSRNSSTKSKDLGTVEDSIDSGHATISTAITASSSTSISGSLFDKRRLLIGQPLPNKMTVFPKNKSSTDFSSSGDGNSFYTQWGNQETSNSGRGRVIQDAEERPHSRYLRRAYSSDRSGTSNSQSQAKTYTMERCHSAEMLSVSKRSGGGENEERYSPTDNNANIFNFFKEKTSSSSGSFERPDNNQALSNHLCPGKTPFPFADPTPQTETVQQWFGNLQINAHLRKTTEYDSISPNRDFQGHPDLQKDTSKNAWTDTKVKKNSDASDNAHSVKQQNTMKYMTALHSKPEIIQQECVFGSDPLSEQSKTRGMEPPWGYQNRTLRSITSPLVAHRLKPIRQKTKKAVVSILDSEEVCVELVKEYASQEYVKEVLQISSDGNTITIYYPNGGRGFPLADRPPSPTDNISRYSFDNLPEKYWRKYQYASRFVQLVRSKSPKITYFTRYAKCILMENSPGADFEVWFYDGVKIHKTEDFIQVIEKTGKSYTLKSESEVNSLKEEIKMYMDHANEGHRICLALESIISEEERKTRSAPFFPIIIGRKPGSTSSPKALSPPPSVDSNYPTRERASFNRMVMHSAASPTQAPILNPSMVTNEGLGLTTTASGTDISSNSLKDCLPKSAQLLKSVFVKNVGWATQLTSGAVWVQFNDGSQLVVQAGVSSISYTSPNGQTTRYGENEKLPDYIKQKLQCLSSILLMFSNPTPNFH

[2] = molecular target: Serine/threonine-protein kinase 10 (Homo sapiens) (UniProt O94804); experiment: Inhibition of LOK (unknown origin) at 10 uM after 120 mins P33 radiolabeled kinase activity assay
[3] = molecular target: T2, Serine/threonine-protein kinase Sgk1 (Homo sapiens) (UniProt O00141); experiment: Inhibition of SGK1 (unknown origin) at 10 uM after 120 mins P33 radiolabeled kinase activity assay
T2 sequence (whole entry): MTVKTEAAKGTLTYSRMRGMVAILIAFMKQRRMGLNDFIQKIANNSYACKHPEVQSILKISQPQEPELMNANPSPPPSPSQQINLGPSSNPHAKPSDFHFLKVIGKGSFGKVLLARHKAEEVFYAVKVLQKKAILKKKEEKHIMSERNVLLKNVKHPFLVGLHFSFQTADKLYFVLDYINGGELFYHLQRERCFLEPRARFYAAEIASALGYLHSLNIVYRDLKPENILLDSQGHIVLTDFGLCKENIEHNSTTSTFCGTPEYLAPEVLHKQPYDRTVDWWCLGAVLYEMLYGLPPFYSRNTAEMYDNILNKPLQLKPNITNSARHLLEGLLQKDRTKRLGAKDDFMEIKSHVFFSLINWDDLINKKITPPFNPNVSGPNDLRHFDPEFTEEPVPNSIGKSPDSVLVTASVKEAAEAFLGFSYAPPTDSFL

[4] = molecular target: T3, Serine/threonine-protein kinase TBK1 (Homo sapiens) (UniProt Q9UHD2); experiment: Inhibition of TBK1 (unknown origin) at 10 uM after 120 mins P33 radiolabeled kinase activity assay
T3 sequence (whole entry): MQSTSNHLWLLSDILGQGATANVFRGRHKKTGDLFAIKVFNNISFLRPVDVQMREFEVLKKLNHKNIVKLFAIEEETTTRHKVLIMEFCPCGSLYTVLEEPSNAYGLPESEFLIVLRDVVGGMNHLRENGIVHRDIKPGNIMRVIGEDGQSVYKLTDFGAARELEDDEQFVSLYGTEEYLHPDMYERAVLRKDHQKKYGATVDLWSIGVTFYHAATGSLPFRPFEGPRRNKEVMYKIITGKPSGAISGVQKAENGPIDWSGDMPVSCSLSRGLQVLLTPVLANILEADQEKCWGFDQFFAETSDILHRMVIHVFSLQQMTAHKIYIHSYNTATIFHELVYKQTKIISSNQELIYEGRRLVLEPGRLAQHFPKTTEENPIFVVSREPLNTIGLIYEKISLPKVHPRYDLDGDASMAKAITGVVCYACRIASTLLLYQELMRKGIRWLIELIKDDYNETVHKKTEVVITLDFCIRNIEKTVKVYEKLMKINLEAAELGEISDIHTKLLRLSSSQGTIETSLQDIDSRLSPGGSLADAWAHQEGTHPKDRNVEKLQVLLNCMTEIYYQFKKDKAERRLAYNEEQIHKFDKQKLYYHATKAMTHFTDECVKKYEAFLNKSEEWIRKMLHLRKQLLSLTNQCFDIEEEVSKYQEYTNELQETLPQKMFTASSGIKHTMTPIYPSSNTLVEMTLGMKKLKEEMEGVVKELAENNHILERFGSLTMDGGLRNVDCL

[5] = molecular target: RAC-beta serine/threonine-protein kinase (Homo sapiens) (UniProt P31751); experiment: Inhibition of AKT2 (unknown origin) at 10 uM after 120 mins P33 radiolabeled kinase activity assay
[6] = molecular target: T4, Tyrosine-protein kinase TXK (Homo sapiens) (UniProt P42681); experiment: Inhibition of TXK (unknown origin) at 10 uM after 120 mins P33 radiolabeled kinase activity assay
T4 sequence (whole entry): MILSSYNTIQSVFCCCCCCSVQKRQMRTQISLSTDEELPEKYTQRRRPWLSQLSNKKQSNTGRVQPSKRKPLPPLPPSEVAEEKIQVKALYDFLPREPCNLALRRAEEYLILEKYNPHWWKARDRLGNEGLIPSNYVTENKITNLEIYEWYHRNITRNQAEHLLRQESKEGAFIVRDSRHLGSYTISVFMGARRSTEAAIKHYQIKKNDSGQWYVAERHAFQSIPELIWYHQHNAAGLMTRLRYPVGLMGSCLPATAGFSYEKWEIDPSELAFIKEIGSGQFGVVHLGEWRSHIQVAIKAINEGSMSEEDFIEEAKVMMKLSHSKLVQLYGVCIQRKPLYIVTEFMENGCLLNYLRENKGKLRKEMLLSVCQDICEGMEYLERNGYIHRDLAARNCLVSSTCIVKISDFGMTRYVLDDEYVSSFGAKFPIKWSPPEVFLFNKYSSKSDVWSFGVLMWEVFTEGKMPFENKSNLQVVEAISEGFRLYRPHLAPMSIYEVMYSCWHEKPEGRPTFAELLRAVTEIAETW

[7] = molecular target: Calcium/calmodulin-dependent protein kinase type 1G (Homo sapiens) (UniProt Q96NX5); experiment: Inhibition of CAMK1gamma (unknown origin) at 10 uM after 120 mins P33 radiolabeled kinase activity assay
Calcium/calmodulin-dependent protein kinase type 1G (Homo sapiens), sequence (Q96NX5 whole entry): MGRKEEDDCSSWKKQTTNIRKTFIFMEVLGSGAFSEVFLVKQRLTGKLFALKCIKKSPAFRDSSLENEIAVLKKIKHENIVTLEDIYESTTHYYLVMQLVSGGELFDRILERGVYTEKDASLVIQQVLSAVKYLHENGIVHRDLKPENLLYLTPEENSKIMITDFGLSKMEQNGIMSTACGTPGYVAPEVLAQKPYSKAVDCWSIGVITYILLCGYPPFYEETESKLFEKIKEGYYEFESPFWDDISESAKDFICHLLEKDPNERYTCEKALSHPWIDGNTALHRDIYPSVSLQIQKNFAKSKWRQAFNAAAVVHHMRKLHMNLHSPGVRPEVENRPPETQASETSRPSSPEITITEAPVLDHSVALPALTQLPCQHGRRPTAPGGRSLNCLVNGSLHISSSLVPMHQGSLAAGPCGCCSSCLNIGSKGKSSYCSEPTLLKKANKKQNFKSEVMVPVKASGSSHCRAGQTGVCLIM

Serine/threonine-protein kinase 10 (Homo sapiens), sequence (O94804 whole entry, looked up): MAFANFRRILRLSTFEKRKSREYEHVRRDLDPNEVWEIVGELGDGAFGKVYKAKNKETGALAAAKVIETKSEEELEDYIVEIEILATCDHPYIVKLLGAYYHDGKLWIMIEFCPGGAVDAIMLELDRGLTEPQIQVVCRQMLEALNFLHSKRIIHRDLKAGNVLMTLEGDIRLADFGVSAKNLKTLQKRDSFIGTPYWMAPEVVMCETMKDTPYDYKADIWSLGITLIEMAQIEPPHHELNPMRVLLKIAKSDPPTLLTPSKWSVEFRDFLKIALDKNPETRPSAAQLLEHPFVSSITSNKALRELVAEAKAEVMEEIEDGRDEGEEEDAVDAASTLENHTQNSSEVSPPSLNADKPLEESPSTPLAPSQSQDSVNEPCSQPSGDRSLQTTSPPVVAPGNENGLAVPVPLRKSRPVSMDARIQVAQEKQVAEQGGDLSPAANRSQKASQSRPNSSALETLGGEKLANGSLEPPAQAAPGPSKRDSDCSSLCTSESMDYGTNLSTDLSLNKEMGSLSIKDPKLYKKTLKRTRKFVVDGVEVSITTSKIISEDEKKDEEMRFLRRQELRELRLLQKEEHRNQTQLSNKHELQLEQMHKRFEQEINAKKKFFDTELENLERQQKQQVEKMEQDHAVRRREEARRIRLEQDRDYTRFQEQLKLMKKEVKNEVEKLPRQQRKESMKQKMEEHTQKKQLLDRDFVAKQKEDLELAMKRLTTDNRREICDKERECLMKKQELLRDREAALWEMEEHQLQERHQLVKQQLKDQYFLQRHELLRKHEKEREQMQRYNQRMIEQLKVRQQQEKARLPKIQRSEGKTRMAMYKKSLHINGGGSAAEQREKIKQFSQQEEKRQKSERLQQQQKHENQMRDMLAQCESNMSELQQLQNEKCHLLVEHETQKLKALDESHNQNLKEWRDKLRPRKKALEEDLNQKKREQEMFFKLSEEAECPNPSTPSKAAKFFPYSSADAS
RAC-beta serine/threonine-protein kinase (Homo sapiens), sequence (P31751 whole entry): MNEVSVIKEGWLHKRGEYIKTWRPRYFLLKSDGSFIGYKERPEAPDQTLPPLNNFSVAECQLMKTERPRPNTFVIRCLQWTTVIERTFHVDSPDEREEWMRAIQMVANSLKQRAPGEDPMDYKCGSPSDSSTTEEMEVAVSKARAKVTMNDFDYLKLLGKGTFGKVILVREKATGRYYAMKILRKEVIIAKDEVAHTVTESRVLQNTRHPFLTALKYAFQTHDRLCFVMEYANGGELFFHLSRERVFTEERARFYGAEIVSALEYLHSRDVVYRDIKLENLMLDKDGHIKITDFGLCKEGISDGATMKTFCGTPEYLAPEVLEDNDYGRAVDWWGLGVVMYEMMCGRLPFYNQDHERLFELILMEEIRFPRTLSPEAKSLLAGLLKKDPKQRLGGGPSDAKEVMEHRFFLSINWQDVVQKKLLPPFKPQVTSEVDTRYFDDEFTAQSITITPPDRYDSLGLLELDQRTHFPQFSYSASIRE

inhibition [1] [%]	inhibition [2] [%]	inhibition [3] [%]	inhibition [4] [%]	inhibition [5] [%]	inhibition [6] [%]	inhibition [7] [%]	SMILES
97	74.8	30.1	55.4	21.6	97.5	66.6	CS(=O)(=O)c1cccc(Nc2nccc(-c3sc(N4CCOCC4)nc3-c3cccc(NS(=O)(=O)c4c(F)cccc4F)c3)n2)c1
17.3	28.4	10.1	5.84	18.9	27.8	8.82	COCCNC(=O)c1ccc2c(c1)nc(-c1cnc(-c3ccc(Cl)cc3)[nH]1)n2CCOC
19.3	92.8	1.68	4.25	20.6	24.8	20.9	CC(C)(C)c1cc(NC(=O)Nc2ccc(Oc3ccncc3)cc2)no1
